Measurements from article PMC6268327 (2012).

Experiments:
[1] = tested on: p53 DNA (P1 promoter fragment duplex) (DNA, duplex) CCTCCTCCCCAACTCC/GGAGTTGGGGAGGAGG; experiment: fluorescence quenching titration (double-log plot); conditions: Tris-HCl buffer 100 mM (no metal cations given); 100 mM Tris-HCl, pH 7.4; 298 K; 1 μM compound; double-log fit, apparent
[2] = tested on: C-myc DNA (NHE III1 promoter fragment duplex) (DNA, duplex) GGGAGGGTGGGGAAGG/CCTTCCCCACCCTCCC; experiment: fluorescence quenching titration (double-log plot); conditions: Tris-HCl buffer 100 mM (no metal cations given); 100 mM Tris-HCl, pH 7.4; 298 K; 1 μM compound; double-log fit, apparent

| SMILES | Kb [1] | Kb [2] |
| --- | --- | --- |
| OCCCCc1ccc2ccc3cccc4ccc1c2c34 | 2040 L/mol | 1390 L/mol |
| Oc1ccc2ccc3cccc4ccc1c2c34 | 1.16e+06 L/mol | 404000 L/mol |
